# Test system: HBV rcDNA
# Test: HepDE19 assay with bDNA quantitation of HBV rcDNA
# Format: cell-based, hepatitis B virus
# Conditions: HepDE19 assay, inhibition of formation of rcDNA; read-out: DE-19bDNA EC50
# Outline: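 Compounds, top concentration 25 μM in 8-point duplicate series, were applied to Tet-free HepDE19 cultures for 7 days. Branched-DNA quantitation of HBV rcDNA against untreated wells gave EC50 and EC90 by 4-parameter fit. Viability (CC50) came from ATP luminescence on parallel plates incubated 4 days.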
row,Structure (SMILES),EC50 [nM]
1,"CC(c1c[nH]c(=O)c2ccccc12)N(CC1CCN(S(C)(=O)=O)CC1)C(=O)Nc1ccc(F)c(Cl)c1 (single isomer, unassigned) [Compound 204, 3-(3-Chloro-4-fluorophenyl)-1-((1-(methylsulfonyl)piperidin-4-yl)methyl)-1-(1-(1-oxo-1,2-dihydroisoquinolin-4-yl)ethyl)urea]",60
2,"CC(c1c[nH]c(=O)c2ccccc12)N(CC(C)(C)CO)C(=O)Nc1ccc(F)c(Cl)c1 (single isomer, unassigned) [Compound 209, 3-(3-Chloro-4-fluorophenyl)-1-(3-hydroxy-2,2-dimethylpropyl)-1-(1-(1-oxo-1,2-dihydroisoquinolin-4-yl)ethyl)urea]",7900
3,"CC(c1c[nH]c(=O)c2ccccc12)N(CC(C)(C)CO)C(=O)Nc1ccc(F)c(Cl)c1 (single isomer, unassigned) [Compound 210, 3-(3-Chloro-4-fluorophenyl)-1-(3-hydroxy-2,2-dimethylpropyl)-1-(1-(1-oxo-1,2-dihydroisoquinolin-4-yl)ethyl)urea]",100
4,"CC(c1c[nH]c(=O)c2ccccc12)N(CC[C@@H](C)O)C(=O)Nc1ccc(F)c(Cl)c1 (single isomer, unassigned) [Compound 211]",2700
5,"CC(c1c[nH]c(=O)c2ccccc12)N(CC[C@@H](C)O)C(=O)Nc1ccc(F)c(Cl)c1 (single isomer, unassigned) [Compound 212]",20
6,"CC(c1c[nH]c(=O)c2ccccc12)N(C[C@@H](C)O)C(=O)Nc1ccc(F)c(Cl)c1 (single isomer, unassigned) [Compound 215]",23000
7,"CC(c1c[nH]c(=O)c2ccccc12)N(C[C@@H](C)O)C(=O)Nc1ccc(F)c(Cl)c1 (single isomer, unassigned) [Compound 216]",90
8,"CC(c1c[nH]c(=O)c2ccccc12)N(C[C@H](C)O)C(=O)Nc1ccc(F)c(Cl)c1 (single isomer, unassigned) [Compound 217]",8200
9,"CC(c1c[nH]c(=O)c2ccccc12)N(C[C@H](C)O)C(=O)Nc1ccc(F)c(Cl)c1 (single isomer, unassigned) [Compound 218]",80
10,"Cc1[nH]c(=O)c2ccccc2c1C(C)N(C)C(=O)Nc1ccc(F)c(Cl)c1 (single isomer, unassigned) [Compound 222, 3-(3-Chloro-4-fluorophenyl)-1-methyl-1-(1-(3-methyl-1-oxo-1,2-dihydroisoquinolin-4-yl)ethyl)urea]",620
11,"Cc1[nH]c(=O)c2ccccc2c1C(C)N(C)C(=O)Nc1ccc(F)c(Cl)c1 (single isomer, unassigned) [Compound 223, 3-(3-Chloro-4-fluorophenyl)-1-methyl-1-(1-(3-methyl-1-oxo-1,2-dihydroisoquinolin-4-yl)ethyl)urea]",27
12,"CC(c1c[nH]c(=O)c2ccccc12)N(CCCC(=O)O)C(=O)Nc1ccc(F)c(Cl)c1 (single isomer, unassigned) [Compound 227, 4-(3-(3-Chloro-4-fluorophenyl)-1-(1-(1-oxo-1,2-dihydroisoquinolin-4-yl)ethyl)ureido)butanoic acid]",4900
13,"CNc1ncc(C(C)N(C)C(=O)Nc2ccc(F)c(Cl)c2)c2ccccc12 (single isomer, unassigned) [Compound 231, 3-(3-Chloro-4-fluorophenyl)-1-methyl-1-(1-(1-(methylamino)isoquinolin-4-yl)ethyl)urea]",12000
14,"CNc1ncc(C(C)N(C)C(=O)Nc2ccc(F)c(Cl)c2)c2ccccc12 (single isomer, unassigned) [Compound 232, 3-(3-Chloro-4-fluorophenyl)-1-methyl-1-(1-(1-(methylamino)isoquinolin-4-yl)ethyl)urea]",120
15,"CC(c1cnc(N(C)C)c2ccccc12)N(C)C(=O)Nc1ccc(F)c(Cl)c1 (single isomer, unassigned) [Compound 233, 3-(3-Chloro-4-fluorophenyl)-1-(1-(1-(dimethylamino)isoquinolin-4-yl)ethyl)-1-methylurea]",14000
16,"CC(c1cnc(N(C)C)c2ccccc12)N(C)C(=O)Nc1ccc(F)c(Cl)c1 (single isomer, unassigned) [Compound 234, 3-(3-Chloro-4-fluorophenyl)-1-(1-(1-(dimethylamino)isoquinolin-4-yl)ethyl)-1-methylurea]",650
17,"Cc1cc(NC(=O)N(C)C(C)c2c(C)[nH]c(=O)c3ccccc23)ccc1F (single isomer, unassigned) [Compound 236, 3-(4-Fluoro-3-methylphenyl)-1-methyl-1-(1-(3-methyl-1-oxo-1,2-dihydroisoquinolin-4-yl)ethyl)urea]",410
18,"Cc1cc(NC(=O)N(C)C(C)c2c(C)[nH]c(=O)c3ccccc23)ccc1F (single isomer, unassigned) [Compound 237, 3-(4-Fluoro-3-methylphenyl)-1-methyl-1-(1-(3-methyl-1-oxo-1,2-dihydroisoquinolin-4-yl)ethyl)urea]",40
19,"CC(c1cnc(N)c2ccccc12)N(C)C(=O)Nc1ccc(F)c(Cl)c1 (single isomer, unassigned) [Compound 238, 1-(1-(1-Aminoisoquinolin-4-yl)ethyl)-3-(3-chloro-4-fluorophenyl)-1-methylurea]",3400

# Same assay, conditions: Hepatitis B virus, HepDE19, HepDE19 assay, inhibition of formation of rcDNA; read-out: DE-19bDNA EC50
row,Structure (SMILES),EC50 [nM]
1,"CC(c1cn(CCO)c(=O)c2ccccc12)N(C)C(=O)Nc1ccc(F)c(Cl)c1 (single isomer, unassigned) [Compound 205, 3-(3-Chloro-4-fluorophenyl)-1-(1-(2-(2-hydroxyethyl)-1-oxo-1,2-dihydroisoquinolin-4-yl)ethyl)-1-methylurea]",160
2,"CC(c1cn(CCCO)c(=O)c2ccccc12)N(C)C(=O)Nc1ccc(F)c(Cl)c1 (single isomer, unassigned) [Compound 206, 3-(3-Chloro-4-fluorophenyl)-1-(1-(2-(3-hydroxypropyl)-1-oxo-1,2-dihydroisoquinolin-4-yl)ethyl)-1-methylurea]",850
3,"CC(c1c[nH]c(=O)c2ccccc12)N(CC1CCN(C)CC1)C(=O)Nc1ccc(F)c(Cl)c1 (single isomer, unassigned) [Compound 207, 3-(3-Chloro-4-fluorophenyl)-1-((1-methylpiperidin-4-yl)methyl)-1-(1-(1-oxo-1,2-dihydroisoquinolin-4-yl)ethyl)urea]",9000
4,"CC(c1c[nH]c(=O)c2ccccc12)N(CCC(=O)O)C(=O)Nc1ccc(F)c(Cl)c1 (single isomer, unassigned) [Compound 208, 3-(3-(3-Chloro-4-fluorophenyl)-1-(1-(1-oxo-1,2-dihydroisoquinolin-4-yl)ethyl)ureido)propanoic acid]",3300
5,"CNS(=O)(=O)CCCN(C(=O)Nc1ccc(F)c(Cl)c1)C(C)c1c[nH]c(=O)c2ccccc12 (single isomer, unassigned) [Compound 220, 3-(3-(3-Chloro-4-fluorophenyl)-1-(1-(1-oxo-1,2-dihydroisoquinolin-4-yl)ethyl)ureido)-N-methylpropane-1-sulfonamide]",140

# Same assay, conditions: read-out: DE-19bDNA EC50; HepDE19 assay, inhibition of formation of rcDNA
row,Structure (SMILES),EC50 [nM]
1,"CC(c1c[nH]c(=O)c2ccccc12)N(CC[C@H](C)O)C(=O)Nc1ccc(F)c(Cl)c1 (single isomer, unassigned) [Compound 213]",3600
2,"CC(c1c[nH]c(=O)c2ccccc12)N(CC[C@H](C)O)C(=O)Nc1ccc(F)c(Cl)c1 (single isomer, unassigned) [Compound 214]",47
